These results are taken from PubChem BioAssay (NCI).

What all share (assay): DTP human tumour cell line panel, 48 h
Assay [1] concerns SK-MEL-28 melanoma.
The subject of assay [2] is M14 melanoma.
Assay [3] concerns OVCAR-5 ovarian.
Assay [4] relates to BT-549 breast.
Assay [5] deals with SK-MEL-2 melanoma.
Assay [6] relates to SR leukemia.
Assay [7] has as its system HCT-116 colon.
Assay [8] deals with DU-145 prostate.
For assay [9], the system named is RXF 393 renal.
Assay [10] concerns MCF7 breast.
Assay [11] relates to NCI-H522 lung.
Assay [12] has as its system PC-3 prostate.
Assay [13] relates to NCI-H460 lung.
Assay [14] relates to HL-60(TB) leukemia.
The subject of assay [15] is RPMI-8226 leukemia.
Assay [16] has as its system MDA-MB-231 breast.

Each structure is given as a SMILES string.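 Grown in 96-well plates, cells were treated for 48 hours with each compound at five concentrations. Insufficient inhibition: endpoint recorded as highest concentration tested. TGI: total growth inhibition.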 Some results are limits rather than exact numbers.

Regarding `O=C(NN1C(=O)C(Cl)C1c1ccc(Cl)cc1)c1c(Cl)c(Cl)c(Cl)c(Cl)c1-c1nc2ccccc2[nH]1` (centres undefined), the TGI is 78.7 µM in [1]; 74.9 µM in assay [2]; > 100 µM in assay [3]; 77.8 µM in [4]; 47.1 µM in assay [5]; > 100 µM in assay [6]. Moreover, the TGI in [7] was 44 µM; in assay [8], 42.6 µM; in assay [9], 17.9 µM; in [10], 34.4 µM; in assay [11] it was 39.7 µM; in assay [12], > 100 µM. The results for the TGI in [13] and in [14] were 46.4 µM and 59.6 µM, respectively.

Regarding `CCC(CC)NC1=C(NC(C)=O)C(=O)c2ccccc2C1=O`, the TGI in assay [1], in assay [2], in assay [5], in [6], in assay [7] and in assay [9] was > 50 µM throughout. Moreover, the TGI in assay [11], in [13] and in assay [14] was > 50 µM throughout.

With `O=S(Cc1ccccc1)c1nc2ccccc2nc1-c1cccs1` (centres undefined), the TGI in assay [1] was 23.9 µM; in [2], 25.4 µM; in assay [3] it was 31.9 µM; in [5], 24.2 µM; in assay [7], 23.3 µM; in [15], 68 µM. Moreover, the TGI was 3.4 µM in [11], 45.4 µM in assay [13] and > 100 µM in assay [14].

Consider `N#CSCC(Cl)=CCl` (mixture of isomers), for which the TGI in [1], in assay [16], in assay [2], in [3], in assay [5] and in assay [6] was > 100 µM in each case. Moreover, the TGI in assay [7], in assay [8], in assay [9], in [15], in assay [11] and in assay [12] was > 100 µM in each case. Besides, the TGI in [13] and in assay [14] was > 100 µM throughout.

As to `Cc1n(CC(C)C)c2c([n+]1C)C(=O)c1ccccc1C2=O`, the TGI in assay [1] was 2.98 µM; in assay [16] it was 0.344 µM; in [2] it was 1.06 µM; in assay [3], 0.824 µM; in assay [4], 0.61 µM; in assay [5] it was 0.524 µM. For the same molecule, the TGI in assay [6] stood at 11.5 µM; in assay [7], 0.23 µM; in assay [8] it was 0.41 µM; in [9] it was 6.19 µM; in assay [15], 8.37 µM; in [11] it was 0.0386 µM. The TGI in [12] is 0.337 µM; in assay [13], 1.26 µM; in assay [14] it was 0.437 µM.

As for `N[C@@H]1CCN(c2c(F)cc3c(=O)c(C(=O)O)cn4c3c2Oc2c-4ccc3c2ccc2ccccc23)C1`, the TGI in [1], in assay [2], in assay [3], in assay [4], in [5] and in [6] was > 100 µM each time. Also, the TGI in assay [8] was > 100 µM; in [9], > 100 µM; in assay [15], 36.3 µM; in assay [10], 3.34 µM; in assay [11], > 100 µM; in assay [12], > 100 µM. In addition, the TGI in assay [13] is 2.91 µM; in assay [14] it was > 100 µM.

Turning to `N#C[S-].[La+3].c1cnc2c(c1)ccc1cccnc12.c1cnc2c(c1)ccc1cccnc12.c1cnc2c(c1)ccc1cccnc12`, the TGI was 33.9 µM in assay [1]; 3.57 µM in assay [2]; 12.4 µM in assay [3]; 8.8 µM in [6]; 10.2 µM in assay [7]; > 100 µM in assay [15]. Further, the TGI in assay [11] came out at 16 µM; in assay [14], 2.47 µM.

In the case of `CC(C)(C)C1=C(Br)C(C(C)(C)C)OP1(=O)O` (centres undefined), the TGI in [1], in assay [2], in assay [3], in [5], in assay [7] and in assay [8] was > 100 µM in each case. The TGI in assay [10], in assay [11], in [12], in [13] and in assay [14] was > 100 µM in each case.

Turning to `CN(C)/C=C/C(=CC=[N+](C)C)/C=C/N(C)C`, the TGI in [1], in [2], in assay [3], in [5], in assay [6] and in assay [7] was > 100 µM each time. The TGI in assay [9], in [15], in assay [11], in assay [13] and in assay [14] was > 100 µM throughout.

As for `CC12C=CC(C)(C3C(=O)C4C(C(=O)C31)C1(C)C=CC4(C)S1=O)S2=O` (centres undefined), the TGI in assay [16], in assay [2], in assay [3], in assay [4], in [8] and in assay [9] was > 100 µM in each case. Besides, the TGI in assay [11], in assay [12] and in assay [13] was > 100 µM each time.

Regarding `CC1(C)OCN(c2ccc(N3CCOCC3)cc2)Cn2c1nc1ccccc12`, the TGI in [1] was > 100 µM; in [2], > 100 µM; in assay [5], > 100 µM; in assay [6], 92.7 µM; in assay [7], > 100 µM; in [9], > 100 µM. Besides, the total growth inhibition concentration (TGI) in assay [15] is 86.6 µM; in assay [11] it was > 100 µM; in assay [13] it was > 100 µM; in [14], 72.9 µM.

For `Cc1ccc(C(=O)O)c(/C=C2\Cc3ccc(C)cc3C2=O)c1`, the TGI in assay [1], in [2], in assay [3], in assay [4], in assay [5] and in [6] was > 100 µM in each case. Further, the TGI is > 100 µM in assay [7]; > 100 µM in assay [8]; > 100 µM in [9]; 53.3 µM in assay [15]; > 100 µM in assay [10]; > 100 µM in [11]. In addition, the TGI is > 100 µM in assay [12], > 100 µM in assay [13] and 98.6 µM in assay [14].
